Laboratory results as given in publication PMC4184574, “Enantioselectivity in the cytochrome P450-dependent conversion of tegafur to 5-fluorouracil in human liver microsomes” (Pharmacology Research & Perspectives, 2013).
Several values for one entry are separate records, joined by “and”; a condition that tells them apart may be missing. Equal values may be shown once.

Columns and labels:
Assay type in all cases: in vitro ADME
[1] = 5-FU formation from FT enantiomers in human hepatic microsomes (kinetic analysis, formation rate); details: for Km / Vmax: monophasic kinetics; for Km1 / Vmax1 / CLint1: high-affinity component; for CLint1: Vmax/Km; for Km2 / Vmax2: low-affinity component
Description: (§1) (pooled preparations from 20 donors; Kansas City, KS). […] Insect microsomes expressing only NADPH-P450 oxidoreductase and cytochrome b5 were also used as control. These enzymes were stored at −80°C until use.
(§2) 5-FU formed from FT was subjected to extensive metabolism by dihydropyrimidine dehydrogenase (DPD) contaminating human hepatic preparations. Therefore, a potent DPD inhibitor, CDHP, was always added to avoid the unexpected loss of 5-FU (Ikeda et al. [2000]; Yamamiya et al. [2010]). Incubation mixture for hepatic microsomal metabolism contained FT, microsomes (1 mg protein/mL), 0.1 mmol/L CDHP, and an NADPH-generating system consisting of 1.3 mmol/L β-NADP^+, 3.3 mmol/L glucose-6-phosphate, 3.3 mmol/L magnesium chloride, and 0.4 units glucose-6-phosphate dehydrogenase in 100 mmol/L Tris (pH 7.4). Metabolic reaction by S9 and cytosol (each 2 mg protein/mL) was carried out in 100 mmol/L phosphate (pH 7.4) because TPase requires phosphate ions for catalyzing the reaction. In some cases, insect microsomes expressing recombinant CYP isoforms (20 pmol/mL) were added to the incubation mixtures in either 50, 100 mmol/L phosphate (pH 7.4) or 100 mmol/L Tris (pH 7.4), depending on supplier's recommendation. […] The reaction for the assay of FT metabolism was initiated by adding the substrate, following preincubation for 5 min at 37°C. […] The incubation times of microsomes, cytosol, and S9 were 15, 15, and 30 min, respectively. After centrifugation, the supernatant was collected and stored at −80°C until the determination of 5-FU. Because a small portion of FT is nonenzymatically converted to 5-FU, the content of 5-FU spontaneously formed was subtracted from total yield obtained after incubation to correct the activity. The spontaneous degradation of FT to 5-FU was evaluated using enzymes inactivated by heating them at 100°C for 5 min.
(§3) Concentration of 5-FU was determined using a LC/MS/MS system. […] The mobile phase consisted of 10 mmol/L ammonium acetate/acetonitrile 10:90 (v/v). The MS/MS analysis was performed in negative ionization mode under multiple reaction monitoring (MRM) mode, using mass transitions, m/z 128.6/41.8 for 5-FU and m/z 130.6/42.8 for ^15N2-5-FU, an internal standard (IS). […] For quantification of 5-FU, the calibration curves were linear over the range 2–1000 ng/mL.
(§4) In determining kinetic parameters, FT concentration ranged from 0.03 to 10 mmol/L. All reactions were performed in a linear range of 5-FU formation with respect to protein or CYP concentrations and incubation time. Eadie–Hofstee plot analysis was used to characterize enzyme kinetics in which kinetic parameters were estimated by fitting the data to the following equations (1) or (2): [drawing 1] (1) [drawing 2] (2) where V is 5-FU formation rate, S is FT concentration in the incubation mixture, Km1 and Km2 are affinity constants for high- and low-affinity components, respectively, and Vmax1 and Vmax2 are maximum velocities for high- and low-affinity components, respectively.

CYP1A2 = target: T1, CYP1A2 (Homo sapiens, UniProt P05177); assay: 5-FU formation from FT enantiomers by cDNA-expressed CYP1A2 (kinetics, velocity, RAF contribution); details: for CYP contribution: CYP1A2, RAF method, 30 μmol/L
T1 construct: purchased BD Gentest; host or cells: insect cells (baculovirus)
T1 sequence (P05177 2-516 limits assumed): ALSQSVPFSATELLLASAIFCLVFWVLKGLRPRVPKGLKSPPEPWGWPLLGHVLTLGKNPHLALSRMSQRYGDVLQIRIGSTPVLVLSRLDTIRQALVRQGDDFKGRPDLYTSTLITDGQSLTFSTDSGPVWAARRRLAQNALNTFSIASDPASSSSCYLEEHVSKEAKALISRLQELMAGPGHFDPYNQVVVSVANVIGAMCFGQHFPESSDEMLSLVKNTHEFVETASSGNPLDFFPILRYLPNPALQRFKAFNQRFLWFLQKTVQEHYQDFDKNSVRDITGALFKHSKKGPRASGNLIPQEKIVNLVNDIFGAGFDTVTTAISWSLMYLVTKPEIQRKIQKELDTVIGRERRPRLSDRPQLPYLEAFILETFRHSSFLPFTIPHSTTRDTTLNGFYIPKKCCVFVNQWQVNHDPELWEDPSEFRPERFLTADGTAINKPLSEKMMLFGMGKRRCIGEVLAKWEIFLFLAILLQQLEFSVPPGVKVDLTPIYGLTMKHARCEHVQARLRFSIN
Description: as §1, §2, §3, §4
(§5) The contribution of CYPn to the metabolism of R- and S-FT at their concentration of 30 μmol/L was subsequently calculated using equation (4). [drawing 4] (4) VCYPn = 5-FU formation rate in cDNA-expressed CYPn.

CYP2C19 = target: T2, CYP2C19 (Homo sapiens, UniProt P33261); assay: 5-FU formation from FT enantiomers by cDNA-expressed CYP2C19 (kinetics, velocity, RAF contribution); details: for CYP contribution: CYP2C19, RAF method, 30 μmol/L
T2 construct: purchased BD Gentest; host or cells: insect cells (baculovirus)
Description: as §1, §2, §3, §4, §5

CYP2E1 = target: T3, CYP2E1 (Homo sapiens, UniProt P05181); assay: 5-FU formation from FT enantiomers by cDNA-expressed CYP2E1 (kinetics, velocity, RAF contribution); details: for CYP contribution: CYP2E1, RAF method, 30 μmol/L; for CLint / Km / Vmax: cDNA-expressed CYP2E1
T3 construct: purchased BD Gentest; host or cells: insect cells (baculovirus)
Description: as §1, §2, §3, §4, §5

[2] = 5-FU formation from FT enantiomers in pooled human hepatic cytosol
Description: as §1
5-FU formed from FT was subjected to extensive metabolism by dihydropyrimidine dehydrogenase (DPD) contaminating human hepatic preparations. Therefore, a potent DPD inhibitor, CDHP, was always added to avoid the unexpected loss of 5-FU (Ikeda et al. [2000]; Yamamiya et al. [2010]). Incubation mixture for hepatic microsomal metabolism contained FT, microsomes (1 mg protein/mL), 0.1 mmol/L CDHP, and an NADPH-generating system consisting of 1.3 mmol/L β-NADP^+, 3.3 mmol/L glucose-6-phosphate, 3.3 mmol/L magnesium chloride, and 0.4 units glucose-6-phosphate dehydrogenase in 100 mmol/L Tris (pH 7.4). Metabolic reaction by S9 and cytosol (each 2 mg protein/mL) was carried out in 100 mmol/L phosphate (pH 7.4) because TPase requires phosphate ions for catalyzing the reaction. […] The spontaneous degradation of FT to 5-FU was evaluated using enzymes inactivated by heating them at 100°C for 5 min.
Concentration of 5-FU was determined using a LC/MS/MS system. […] For quantification of 5-FU, the calibration curves were linear over the range 2–1000 ng/mL. […]

[3] = Mean ± SD of five human livers, total (for R-FT sum of high- and low-affinity components)
[4] = microsomes HG32, total (for R-FT sum of high- and low-affinity components)
[5] = microsomes HH31, total (for R-FT sum of high- and low-affinity components)
[6] = microsomes HH74, total (for R-FT sum of high- and low-affinity components)
[7] = microsomes HH94, total (for R-FT sum of high- and low-affinity components)
[8] = human hepatic microsomes, higher

T3 sequence (P05181 whole entry): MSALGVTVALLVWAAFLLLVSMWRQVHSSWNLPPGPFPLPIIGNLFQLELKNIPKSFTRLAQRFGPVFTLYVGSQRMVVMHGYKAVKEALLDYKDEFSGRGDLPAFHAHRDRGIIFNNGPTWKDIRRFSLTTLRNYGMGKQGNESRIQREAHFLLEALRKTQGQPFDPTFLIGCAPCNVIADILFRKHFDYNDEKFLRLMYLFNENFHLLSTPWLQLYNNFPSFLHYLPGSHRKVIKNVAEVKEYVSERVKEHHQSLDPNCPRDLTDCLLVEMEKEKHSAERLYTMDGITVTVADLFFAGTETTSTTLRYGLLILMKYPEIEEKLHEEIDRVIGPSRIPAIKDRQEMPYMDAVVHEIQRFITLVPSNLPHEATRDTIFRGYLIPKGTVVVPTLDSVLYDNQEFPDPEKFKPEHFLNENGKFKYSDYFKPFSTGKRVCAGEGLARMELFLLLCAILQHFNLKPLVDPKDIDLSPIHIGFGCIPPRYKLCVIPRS
T2 sequence (P33261 whole entry): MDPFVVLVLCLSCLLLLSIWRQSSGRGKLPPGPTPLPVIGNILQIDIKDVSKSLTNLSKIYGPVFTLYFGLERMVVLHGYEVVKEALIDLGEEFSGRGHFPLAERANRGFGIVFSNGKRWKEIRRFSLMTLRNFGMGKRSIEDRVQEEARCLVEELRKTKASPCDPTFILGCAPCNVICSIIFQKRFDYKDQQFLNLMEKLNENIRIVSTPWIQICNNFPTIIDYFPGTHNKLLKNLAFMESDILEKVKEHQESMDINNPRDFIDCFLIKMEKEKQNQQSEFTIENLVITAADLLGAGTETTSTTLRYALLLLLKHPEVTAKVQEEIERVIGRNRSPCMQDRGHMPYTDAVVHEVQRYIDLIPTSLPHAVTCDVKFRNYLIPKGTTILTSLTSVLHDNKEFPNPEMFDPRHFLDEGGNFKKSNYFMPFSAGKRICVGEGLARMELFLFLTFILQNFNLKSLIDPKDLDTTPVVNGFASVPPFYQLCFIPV

## O=c1[nH]c(=O)n([C@@H]2CCCO2)cc1F [S-FT]
[1]; Mean ± SD of five human livers
  Km: 1600 ± 600 µM
  Vmax: 1021 ± 692 pmol/min/mg
[1]; [3]
  CLint: 0.73 ± 0.53 µL/min/mg
[1]; microsomes HG32
  Km: 1400 µM
  Vmax: 468 pmol/min/mg
[1]; [4]
  CLint: 0.34 µL/min/mg
[1]; microsomes HH31
  Km: 1400 µM
  Vmax: 2205 pmol/min/mg
[1]; [5]
  CLint: 1.6 µL/min/mg
[1]; microsomes HH74
  Km: 2600 µM
  Vmax: 583 pmol/min/mg
[1]; [6]
  CLint: 0.23 µL/min/mg
[1]; microsomes HH81
  Km: 1100 µM
  Vmax: 915 pmol/min/mg
[1]; microsomes HH81, total
  CLint: 0.81 µL/min/mg
[1]; microsomes HH94
  Km: 1300 µM
  Vmax: 936 pmol/min/mg
[1]; [7]
  CLint: 0.71 µL/min/mg
CYP1A2
  CYP contribution: 4.4%
CYP1A2; cDNA-expressed CYP1A2
  Km: > 10000 µM
CYP2C19
  CYP contribution: 3.9%
CYP2C19; cDNA-expressed CYP2C19
  CLint: 0.90 nL min^−1 pmol^−1 CYP
  Km: 6200 ± 300 µM
  Vmax: 5.5 ± 0.2 pmol min^−1 pmol^−1 CYP
CYP2E1
  CYP contribution: 7.0%
  CLint: 1.3 nL min^−1 pmol^−1 CYP
  Km: 3700 ± 200 µM
  Vmax: 4.7 ± 0.2 pmol min^−1 pmol^−1 CYP

## O=c1[nH]c(=O)n([C@H]2CCCO2)cc1F [R-FT]
[1]; Mean ± SD of five human livers
  Km1: 0.12 mmol/L and 0.12 ± 0.03 mmol/L
  Vmax1: 838 ± 669 pmol/min/mg
  CLint1: 6.2 ± 4.4 µL/min/mg
[1]; [3]
  CLint: 6.4 ± 4.4 µL/min/mg
[1]; Mean ± SD of human livers
  Km2: 2.7 mmol/L and 2.7 ± 0.3 mmol/L
  Vmax2: 613 ± 236 pmol/min/mg
[1]; [8]
  CLint (Vmax/Km) of high-affinity component compared with the low-affinity one: approximately 27 fold
  CLint value of R-FT relative to that of S-FT: 8.8 fold
[1]; microsomes HG32
  Km1: 0.11 mmol/L
  Vmax1: 355 pmol/min/mg
  CLint1: 3.2 µL/min/mg
  Km2: 3.0 mmol/L
  Vmax2: 302 pmol/min/mg
[1]; [4]
  CLint: 3.3 µL/min/mg
[1]; microsomes HH31
  Km1: 0.14 mmol/L
  Vmax1: 1816 pmol/min/mg
  CLint1: 13 µL/min/mg
  Km2: 2.9 mmol/L
  Vmax2: 859 pmol/min/mg
[1]; [5]
  CLint: 13 µL/min/mg
[1]; microsomes HH74
  Km1: 0.093 mmol/L
  Vmax1: 146 pmol/min/mg
  CLint1: 1.6 µL/min/mg
  Km2: 2.7 mmol/L
  Vmax2: 709 pmol/min/mg
[1]; [6]
  CLint: 1.8 µL/min/mg
[1]; microsomes HH81
  Km1: 0.16 mmol/L
  Vmax1: 1162 pmol/min/mg
  CLint1: 7.1 µL/min/mg
[1]; microsomes HH81, total
  CLint: 7.1 µL/min/mg
[1]; microsomes HH94
  Km1: 0.12 mmol/L
  Vmax1: 712 pmol/min/mg
  CLint1: 6.1 µL/min/mg
  Km2: 2.3 mmol/L
  Vmax2: 583 pmol/min/mg
[1]; [7]
  CLint: 6.4 µL/min/mg
[1]; substrate concentration well below the Km value
  contribution of the high-affinity component to the conversion to 5-FU: over 90%
[2]
  Vmax: 761 pmol/min/mg
[2]; read-out: apparent Km
  Km: 26000 µM
CYP1A2
  CYP contribution: 7.5%
CYP1A2; cDNA-expressed CYP1A2
  CLint: 4.9 nL min^−1 pmol^−1 CYP
  Km: 1100 ± 100 µM
  Vmax: 5.6 ± 0.3 pmol min^−1 pmol^−1 CYP
CYP2C19
  CYP contribution: 0.59%
CYP2C19; cDNA-expressed CYP2C19
  Km: > 10000 µM
CYP2E1
  CYP contribution: 4.3%
  CLint: 2.3 nL min^−1 pmol^−1 CYP
  Km: 3600 ± 300 µM
  Vmax: 8.4 ± 0.6 pmol min^−1 pmol^−1 CYP
